Assay results: patent publication US20250326748A1, “COMPOUNDS AND METHODS FOR MODULATING SPLICING” (REMIX THERAPEUTICS INC., priority 2022, published 2025)
pIC50: −log10 of the molar value. Where two headings read alike, the source gives them in different places.

Tests used:
MYB mRNA = assay: Splicing RT-qPCR assay, MYB canonical (CJ) and alternative (AJ) junction mRNA; format: cell-based, human; conditions: Homo sapiens; for pIC50: canonical junction mRNA; for AC50: alternative junction mRNA, read-out: MYB AJ (AC50, increase in AJ mRNA)
How it was run: (§1)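 Treatment of A673 or K562 cultures with compounds (eleven-point titration, highest final 10 uM, ≤0.25% DMSO) ran one day at 37 °C. Afterwards cells were lysed directly in the well, and cDNA synthesis coupled with qPCR measured CJ and AJ isoform levels against a reference transcript.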

HTT mRNA = assay: Splicing RT-qPCR assay, HTT canonical (CJ) and alternative (AJ) junction mRNA; format: cell-based, human; conditions: Homo sapiens; for pIC50: canonical junction mRNA; for AC50: alternative junction mRNA, read-out: HTT AJ (AC50, increase in AJ mRNA)
How it was run: as §1

K562 cells = assay: Cell viability, Cell Titer Glo 2.0 assay, K562; conditions: 72 hours
[1] = qPCR panel, read-out: MYB CJ (decrease in CJ mRNA levels, IC50)
[2] = RT-qPCR, A673 or K562 cells, 24 hours treatment
[3] = RT-qPCR, A673 or K562 cells, 24 hours treatment, read-out: MYB CJ (IC50, decrease in CJ mRNA)
[4] = 24 h, RT-qPCR, A673 or K562 cells, 24 hours treatment, read-out: HTT CJ (IC50, decrease in CJ mRNA)
[5] = qPCR panel, read-out: HTT CJ (decrease in CJ mRNA levels, IC50)

Structure (SMILES)	pIC50 (MYB mRNA; [1])	pIC50 (MYB mRNA; [3])	pIC50 (HTT mRNA; [4])	pIC50 (HTT mRNA; [5])	AC50 (MYB mRNA; [2])	AC50 (HTT mRNA; [2])	Effect on Cell Viability, K562 (K562 cells)
Cn1cc2cc(-c3ccc4cc(N5CC[C@@H](NC(C)(C)C)C5)cnc4n3)c(O)cc2n1 [Compound 199]	5.00 to 6.00	5.00 to 6.00	5.00 to 6.00	5.00 to 6.00	1 to 10 µM	1 to 10 µM	
CNC1CCN(c2cnc3nc(-c4cc(F)c5nc(C)cn5c4)ccc3c2)C1 (stereo not drawn) [Compound 100, 1-(7-{8-fluoro-2-methylimidazo[1,2-a]pyridin-6-yl}-1,8-naphthyridin-3-yl)-N-methylpyrrolidin-3-amine]	> 7.00	> 7.00	6.00 to 7.00	6.00 to 7.00	< 0.1 µM	0.1 to 1 µM	B (100-1000 nM)
CNC1CCN(c2cnc3nc(-c4cc5cn(C)nc5c(C)c4O)cc(OC)c3n2)C1 (stereo not drawn) [Compound 194, 5-{8-methoxy-2-[3-(methylamino)360pyrrolidine-1-yl]pyrido[2,3-b]pyrazin-6-yl}-2,7-dimethylindazol-6-ol]	5.00 to 6.00	5.00 to 6.00	5.00 to 6.00	5.00 to 6.00	1 to 10 µM	> 10 µM	
COc1nc(-c2cc3cn(C)nc3c(C)c2O)nc2ncc(N3CCC(N(C)C)CC3)cc12 [Compound 163, 5-{6-[4-(dimethylamino)piperidin-1-yl]-4-methoxypyrido[2,3-d]pyrimidin-2-yl}-2,7-dimethylindazol-6-ol]	6.00 to 7.00	6.00 to 7.00	5.00 to 6.00	5.00 to 6.00	0.1 to 1 µM	> 10 µM	B (100-1000 nM)
C[C@H]1CN(c2cnc3nc(-c4cc5cn(C)nc5cc4O)cc(Cl)c3c2)C[C@H](C)N1 [Compound 242]	> 7.00	> 7.00	6.00 to 7.00	6.00 to 7.00	< 0.1 µM	0.1 to 1 µM	A (<100 nM)
CC1CN(c2cnc3nc(-c4cc(F)c5nn(C)cc5c4)cc(Cl)c3c2)CCN1 (stereo not drawn) [Compound 203, 4-chloro-2-(7-fluoro-2-methyl-2H-indazol-5-yl)-6-(3-methylpiperazin-1-yl)-1,8-naphthyridine 2,2,2-trifluoroacetate]	6.00 to 7.00	6.00 to 7.00	6.00 to 7.00	6.00 to 7.00	< 0.1 µM	1 to 10 µM	B (100-1000 nM)
Cn1cc2cc(-c3cc(Cl)c4cc(N5CCNCC5)cnc4n3)cc(F)c2n1 [Compound 103]	> 7.00	> 7.00	6.00 to 7.00	6.00 to 7.00	< 0.1 µM	1 to 10 µM	B (100-1000 nM)
Cn1cc2cc(-c3ccc4cc(N5CC[C@H](NC(C)(C)C)C5)cnc4n3)c(O)cc2n1 (single isomer, unassigned) [Compound 200]	6.00 to 7.00	6.00 to 7.00	5.00 to 6.00	5.00 to 6.00	0.1 to 1 µM	1 to 10 µM	B (100-1000 nM)
Cc1c(O)c(-c2cc(-c3nnc[nH]3)c3cc(N4C[C@@H](C)N[C@@H](C)C4)cnc3n2)cc2cn(C)nc12 [Compound 261, 5-{6-[(3R,5S)-3,5-dimethylpiperazin-1-yl]-4-(4H-1,2,4-triazol-3-yl)-1,8-naphthyridin-2-yl}-2,7-dimethylindazol-6-ol]	> 7.00	5.00 to 6.00	< 5.00	> 7.00	> 10 µM	> 10 µM	D (greater than 10 μM)
C[C@@H]1CN(c2cnc3nc(-c4cc(F)c5nn(C)cc5c4)cc(Cl)c3c2)C[C@@H](C)N1 [Compound 251]	6.00 to 7.00	6.00 to 7.00	5.00 to 6.00	5.00 to 6.00	0.1 to 1 µM	1 to 10 µM	B (100-1000 nM)
Cc1c(O)c(-c2ccc3nc(N4CCNCC4)cnc3n2)cc2cn(C)nc12 [Compound 197, 2,7-dimethyl-5-[2-(piperazin-1-yl)pyrido[2,3-b]pyrazin-6-yl]indazol-6-ol]	6.00 to 7.00	6.00 to 7.00	6.00 to 7.00	6.00 to 7.00	0.1 to 1 µM	0.1 to 1 µM	B (100-1000 nM)
CNC1CCN(c2cnc3nc(-c4cc5cn(C)nc5c(C)c4O)cc(Cl)c3n2)C1 (stereo not drawn) [Compound 193, 5-{8-chloro-2-[3-(methylamino)355pyrrolidine-1-yl]pyrido[2,3-b]pyrazin-6-yl}-2,7-dimethylindazol-6-ol]	> 7.00	> 7.00	6.00 to 7.00	6.00 to 7.00	< 0.1 µM	0.1 to 1 µM	
Cc1cn2nc(-c3ccc4cc(N(C)C5CCNCC5)cnc4n3)cc(C)c2n1 [Compound 205, 7-{2,8-dimethylimidazo[1,2-b]pyridazin-6-yl}-N-methyl-N-(piperidin-4-yl)-1,8-naphthyridin-3-amine]	5.00 to 6.00	5.00 to 6.00	< 5.00	< 5.00	1 to 10 µM	> 10 µM	
COc1nc(-c2cc3cn(C)nc3c(C)c2O)nc2ncc(N3CCNCC3)cc12 [Compound 162, 5-[4-methoxy-6-(piperazin-1-yl)pyrido[2,3-d]pyrimidin-2-yl]-2,7-dimethylindazol-6-ol]	> 7.00	> 7.00	6.00 to 7.00	6.00 to 7.00	< 0.1 µM	0.1 to 1 µM	

Now from value to compound, other results behind:

pIC50 (MYB mRNA; [1])	pIC50 (MYB mRNA; [3])	pIC50 (HTT mRNA; [4])	pIC50 (HTT mRNA; [5])	Structure (SMILES)	AC50 (MYB mRNA; [2])	AC50 (HTT mRNA; [2])	Effect on Cell Viability, K562 (K562 cells)
> 7.00	6.00 to 7.00	5.00 to 6.00	> 7.00	Cc1c(O)c(-c2ccc3nc(N4CCC(N(C)C)CC4)cnc3n2)cc2cn(C)nc12 [Compound 198]	0.1 to 1 µM	> 10 µM	B (100-1000 nM)
> 7.00	> 7.00	> 7.00	> 7.00	COc1nc(-c2cc3cn(C)nc3c(F)c2O)nc2ncc(N3CCC(N(C)C)CC3)cc12 [Compound 219, 5-{6-[4-(dimethylamino)piperidin-1-yl]-4-methoxypyrido[2,3-d]pyrimidin-2-yl}-7-fluoro-2-methylindazol-6-ol]	< 0.1 µM	0.1 to 1 µM	A (<100 nM)
> 7.00	> 7.00	6.00 to 7.00	6.00 to 7.00	Cc1c(O)c(-c2cc(Cl)c3cc(N4CCNCC4)cnc3n2)cc2cn(C)nc12 [Compound 154, 5-[4-chloro-6-(piperazin-1-yl)-1,8-naphthyridin-2-yl]-2,7-dimethylindazol-6-ol]	< 0.1 µM	0.1 to 1 µM	A (<100 nM)
> 7.00	> 7.00	> 7.00	> 7.00	Cn1cc2cc(-c3cc(Cl)c4cc(N5CCNCC5)cnc4n3)c(O)c(F)c2n1 [Compound 155, 5-[4-chloro-6-(piperazin-1-yl)-1,8-naphthyridin-2-yl]-7-fluoro-2-methylindazol-6-ol]	< 0.1 µM	< 0.1 µM	A (<100 nM)
> 7.00	> 7.00	6.00 to 7.00	6.00 to 7.00	CNC1CCN(c2cnc3nc(-c4cc5cn(C)nc5c(C)c4O)nc(OC)c3c2)C1 (stereo not drawn) [Compound 161, 5-{4-methoxy-6-[3-(methylamino)pyrrolidin-1-yl]pyrido[2,3-d]pyrimidin-2-yl}-2,7-dimethylindazol-6-ol]	< 0.1 µM	0.1 to 1 µM	
> 7.00	> 7.00	> 7.00	> 7.00	CN(C)[C@@H]1CCN(c2cnc3nc(-c4cc5cn(C)nc5c(F)c4O)cc(Cl)c3c2)C1 [Compound 220]	< 0.1 µM	0.1 to 1 µM	A (<100 nM)
> 7.00	> 7.00	> 7.00	> 7.00	Cn1cc2cc(-c3cnc4nc(N5CCC(NC6CC6)C5)ccc4n3)c(O)c(F)c2n1 (stereo not drawn) [Compound 178, 5-[6-[3-(cyclopropylamino)pyrrolidin-1-yl]pyrido[2,3-b]pyrazin-2-yl]-7-fluoro-2-methyl-indazol-6-ol]	0.1 to 1 µM	0.1 to 1 µM	B (100-1000 nM)
> 7.00	> 7.00	6.00 to 7.00	6.00 to 7.00	CNC1CCN(c2cnc3nc(-c4cc5cn(C)nc5cc4O)cc(Cl)c3c2)C1 (stereo not drawn) [Compound 213, 5-{4-chloro-6-[3-(methylamino)370pyrrolidine-1-yl]-1,8-naphthyridin-2-yl}-2-methylindazol-6-ol]	< 0.1 µM	0.1 to 1 µM	B (100-1000 nM)
> 7.00	> 7.00	> 7.00	> 7.00	CN[C@@H]1CCN(c2cnc3nc(-c4cc5cn(C)nc5c(F)c4O)cc(Cl)c3c2)C1 [Compound 271]	< 0.1 µM	< 0.1 µM	A (<100 nM)
> 7.00	> 7.00	5.00 to 6.00	5.00 to 6.00	C[C@@H]1CN(c2cnc3nc(-c4cc5cn(C)nc5cc4O)cc(Cl)c3c2)C[C@H](C)N1 [Compound 208]	< 0.1 µM	1 to 10 µM	B (100-1000 nM)
